In patent US8399436B2, “N-pyrazolyl carboxamides as CRAC channel inhibitors” (Glaxo Group Limited, priority 2009, dated 2013):
Where a name gives a salt, the structure may show the parent alone.

Target: ICRAC current (calcium release activated calcium channel) (Homo sapiens, UniProt Q96D31)
Assay type: cell-based
Conditions: Jurkat E6-1 cells; at a final assay concentration of 15 μM
Procedure: This ICRAC assay uses the SERCA inhibitor thapsigargin to produce calcium depletion and activate an ICRAC current. […] Changes in intracellular calcium levels are determined by the inclusion of the calcium sensitive fluorescent dye Fluo-4 and the use of the FLIPR detection system. Inhibitors of ICRAC would be expected to decrease the calcium influx upon calcium add-back, thus reducing fluorescent signal.
Jurkat E6-1 is an established immortalised T lymphocyte cell line previously shown to express a functional ICRAC current. Jurkat cells grow in suspension, are cultured in DMEM+10% FBS, maintained in T175 flasks at 37° C./5% CO2, and are subcultured twice a week with either 1:10-1:20 splits. 1 confluent T175 yields 100 ml of approximately 2×10^6 cells/ml.
Loading buffer contains; NaCl 145 mM, KCl 2.5 mM, HEPES 10 mM, Glucose 10 mM, MgCl2 1.2 mM, made up with water, then pH adjusted to 7.4 using NaOH 1 M. Finally Fluo-4AM & brilliant black are added to give a final assay concentration of 2 μM and 250 μM respectively.
The required seeding density for a 384 plate is 20,000 cells per well. […] Plates are then transferred to the FLIPR which initially measures baseline fluorescence, followed by any increase in fluorescence evoked by the online addition of a 6 mM (1.2 mM FAC) calcium solution. […]

Sequence of ICRAC current (calcium release activated calcium channel) (Q96D31 whole entry): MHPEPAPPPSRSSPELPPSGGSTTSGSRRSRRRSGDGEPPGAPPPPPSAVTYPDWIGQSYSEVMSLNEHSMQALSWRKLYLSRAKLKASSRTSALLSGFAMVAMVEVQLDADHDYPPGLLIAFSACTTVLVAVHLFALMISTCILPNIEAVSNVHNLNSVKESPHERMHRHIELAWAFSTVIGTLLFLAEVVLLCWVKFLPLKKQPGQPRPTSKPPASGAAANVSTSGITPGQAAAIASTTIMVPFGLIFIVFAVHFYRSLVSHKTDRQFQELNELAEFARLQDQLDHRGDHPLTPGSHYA
Sequence of ICRAC current (calcium release activated calcium channel) (Q13586 23-685, further chain): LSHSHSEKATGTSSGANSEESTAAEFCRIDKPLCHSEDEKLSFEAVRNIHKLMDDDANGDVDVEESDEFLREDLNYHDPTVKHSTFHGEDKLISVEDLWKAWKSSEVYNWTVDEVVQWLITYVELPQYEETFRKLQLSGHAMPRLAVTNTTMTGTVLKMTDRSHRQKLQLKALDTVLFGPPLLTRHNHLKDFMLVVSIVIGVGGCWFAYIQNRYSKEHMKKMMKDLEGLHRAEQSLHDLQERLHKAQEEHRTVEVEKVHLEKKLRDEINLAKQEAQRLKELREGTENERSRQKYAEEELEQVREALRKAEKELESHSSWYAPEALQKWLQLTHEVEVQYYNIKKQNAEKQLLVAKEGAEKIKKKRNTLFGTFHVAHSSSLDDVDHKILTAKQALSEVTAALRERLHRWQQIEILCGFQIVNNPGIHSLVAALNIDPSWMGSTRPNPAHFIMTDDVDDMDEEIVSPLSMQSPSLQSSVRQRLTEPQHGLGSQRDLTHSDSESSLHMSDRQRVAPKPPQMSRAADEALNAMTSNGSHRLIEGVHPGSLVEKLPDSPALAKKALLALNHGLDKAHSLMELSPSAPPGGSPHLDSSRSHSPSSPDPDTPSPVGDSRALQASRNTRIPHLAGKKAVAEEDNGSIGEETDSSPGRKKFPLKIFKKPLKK

| SMILES | pIC50 |
| --- | --- |
| O=C(Nc1ccn(Cc2ccc(OP(=O)([O-])[O-])cc2C(F)(F)F)n1)c1c(F)cccc1F.[Na+].[Na+] [Example 186, 4-[(3-{[(2,6-Difluorophenyl)carbonyl]amino}-1H-pyrazol-1-yl)methyl]-3-(trifluoromethyl)phenyl dihydrogen phosphate disodium salt] | 4.9 |
| O=C(c1c(F)cccc1F)N(COP(=O)(O)O)c1ccn(Cc2c(F)cccc2C(F)(F)F)n1 [Example 187, [[(2,6-Difluorophenyl)carbonyl](1-{[2-fluoro-6-(trifluoromethyl)phenyl]methyl}-1H-pyrazol-3-yl)amino]methyl dihydrogen phosphate disodium salt] | < 4.8 |
